Values quoted from earlier work in patent US10307392B2, “Compound and method for treatment of diseases and disorders” (priority 2017, dated 2019).
Like-named read-outs stand apart in the source and are kept apart here.

Key:
spasticity = settings: in vivo
[1] = system: patients receiving Marinol
[2] = system: PBQ-induced writhing in mice; settings: for reducing analgesia and inflammation: mouse, in vivo
MS patients = settings: 13 weeks' follow-up
[3] = system: rat cortical neuron cultures exposed to toxic levels of the neurotransmitter, glutamate; settings: for prevention of glutamate toxicity: isolated or synthetic cannabinoid, in vitro neuronal cultures exposed to glutamate; for NMDA, AMPA and kainate receptor mediated neurotoxicity: not affected by cannabinoid receptor antagonist
[4] = cyclic voltametry and fenton reaction-based system
Parkinson's disease = settings: oral, started with 150 mg/day, 4 weeks
[5] = system: subjects with noninsulin-treated type 2 diabetes
[6] = system: females with severe somatoform and dysautonomic syndrome following HPV vaccination; design: dose or concentration left out as unconfirmed; settings: up to a maximum dose of CBD per day; 12 females

SMILES: CCCCCc1cc(O)c2c(c1)OC(C)(C)[C@@H]1CCC(C)=C[C@@H]21 [Marinol]
- reducing spasticity (spasticity): positive results
- patients reporting cannabinoid dose-related psychotropic effect ([1]; antiemetic clinical trials): 24%
- patients reporting a CNS adverse reaction ([1]; during the first 2 weeks): About 25%
- patients reporting a CNS adverse reaction ([1]; each week for the next 6 weeks): about 4%
- patients reporting cannabinoid dose-related psychotropic effect ([1]; lower dose appetite stimulant clinical trials): 8%
- patients reporting adverse experiences involving the CNS ([1]; patients with AIDS, placebo-controlled clinical trials): 33%

SMILES: CCCCCc1cc(O)c2c(c1)OC(C)(C)c1ccc(C)cc1-2 [CBN, cannabinol]
- reducing analgesia and inflammation [2]: least effective

SMILES: CCCCCc1cc(O)c2c(c1)OC(C)(C)[C@@H]1CCC(C)=C[C@@H]21 [THC, delta-9-tetrahydrocannabinol]
- Mean (SD) change in total Ashworth score (baseline minus follow-up) (MS patients; placebo 0.92 (6.56)): 1.86 (7.95)
- Mean (SD) change in Ashworth score, lower-body muscle groups (MS patients; placebo 1.04 (4.20)): 1.39 (5.21)
- Mean (SD) change in Ashworth score, upper-body muscle groups (MS patients; placebo −0.11 (4.04)): 0.48 (4.70)
- reducing analgesia and inflammation [2]: least effective
- prevention of glutamate toxicity [3]: prevented to some extent
- NMDA, AMPA and kainate receptor mediated neurotoxicity [3]: reduced
- antioxidant activity [4]: potent antioxidants

SMILES: C=C(C)[C@@H]1CCC(C)=C[C@H]1c1c(O)cc(CCCCC)cc1O [CBD, cannabidiol]
- inhibition of PBQ-induced writhing ([2]; oral administration, mice): most effective
- adverse effect during the treatment (Parkinson's disease): no adverse effect
- tolerability ([5]; 200 mg CBD per day, 62 subjects in study): well tolerated
- tolerability [6]: well tolerated
- hydroperoxide toxicity in neurons (neuronal cultures): reduce hydroperoxide toxicity
- protective capacity against glutamate toxicity, head to head with other antioxidants [3]: superior to both alpha-tocopherol and ascorbate
- prevention of glutamate toxicity [3]: prevented to some extent
- NMDA, AMPA and kainate receptor mediated neurotoxicity [3]: reduced
- antioxidant activity [4]: potent antioxidants

SMILES: CCCCCCC(C)(C)c1cc(O)c2c(c1)OC(C)(C)C1CCC(=O)CC21 (stereo not shown) [Cesamet]
- reducing spasticity (spasticity): positive results

SMILES: CCCc1cc(O)c2c(c1)OC(C)(C)[C@@H]1CCC(C)=C[C@@H]21 [THCV]
- tolerability ([5]; 10 mg THCV per day): well tolerated
